Patent US20240239788A1, “SMALL MOLECULE INHIBITORS OF KRAS G12D MUTANT” (Merck Sharp & Dohme LLC, priority 2021, published 2024)
Where two headings read alike, the source gives them in different places.

Legend:
[1] = target: KRAS G12D / Ras binding domain of C-RAF (Homo sapiens (Human), UniProt P01116, G12D); experiment: RAS:RAF-RBD binding assay (cRaf), TR-FRET; conditions: biotinylated KRAS G12D, GST-C-RAF RBD
Protocol: Compounds are added to KRAS and then after a 30-minute incubation time the RAF-RBD and detection antibodies are added. Small molecule inhibitors that block the interaction of c-RAF-RBD prevent generation of a TR-FRET signal.
Biotinylated KRAS G12D protein is diluted to 20 nM in assay buffer (20 mM HEPES pH 7.5, 150 mM sodium chloride, 10 mM magnesium chloride, and 0.01% Tween20).
Each test compound (10 mM stock in DMSO) is diluted in DMSO to make a 10-point, 3-fold dilution series in a 384-well low dead volume microplate (Labcyte, catalog #LP-0200).
Each well of the assay plate receives 5 μL of Biotinylated KRAS G12D assay solution and is incubated at room temperature for 30 minutes. Each well then receives 5 μL of 100 nM GST-C-RAF RBD protein and a 1:100 dilution of both anti-GST-d2 (Cisbio catalog #61GSTDLA) and Streptavidin-Tb cryptate (Cisbio catalog #610SATLA) in assay buffer and the plate is mixed and briefly centrifuged followed by a 60 minute incubation at room temperature.
The apparent effect as a function of compound concentration is fit to a four-parameter logistic equation.

[2] = system: AsPC-1 cells containing homozygous KRAS-G12D activating mutation; experiment: Cellular phospho-ERK assay (Examples 1a-106); format: cell-based; conditions: AsPC-1 cells, 2 hours, ratio of p-Erk vs total Erk, read-out: IC50 (nM) pERK (Cell)
From the text: 5% CO? overnight. […] Assay plates were read on a EnVision Multimode Plate Reader (PerkinElmer) and the ratio of p-Erk vs total Erk in each well was used as the final readout.

[3] = target: KRAS protein containing G12D mutation (Homo sapiens (Human), UniProt P01116, G12D); experiment: SOS-catalyzed nucleotide exchange assay (GNE), TR-FRET; format: biochemical; conditions: biotinylated KRAS G12D, SOS and GTP, 60-minute incubation
KRAS protein containing G12D mutation, sequence (P01116 other isoform, or with tags, fused parts or gaps G12D (already in the parent)): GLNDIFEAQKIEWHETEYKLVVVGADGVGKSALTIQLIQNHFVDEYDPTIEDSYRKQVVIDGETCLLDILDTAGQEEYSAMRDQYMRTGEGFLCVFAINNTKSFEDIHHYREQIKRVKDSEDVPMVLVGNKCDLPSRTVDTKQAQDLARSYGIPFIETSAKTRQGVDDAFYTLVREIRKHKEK
Protocol: Compounds are added to this complex and then after a 60-minute incubation time the mixture is treated with SOS and unlabeled GTP. Small molecule inhibitors stabilize the Bodipy-GDP complex whereas the untreated protein rapidly exchanges Bodipy-GDP for unlabeled GTP resulting in reduced TR-FRET signal.
This solution is referred to as biotinylated KRAS G12D stock solution.

KRAS G12D / Ras binding domain of C-RAF, sequence (P01116 other isoform, or with tags, fused parts or gaps G12D (already in the parent)): as above

Row | Structure (SMILES) | IC50 ([1]; read-out: IC50 (nM) (cRaf)) | IC50 [2] [nM] | IC50 [3] [nM] | IC50 ([1]; IC50 (nM) (cRaf)) | IC50 ([2]; Homo sapiens, ASPC1, 2 h) [nM]
1 | CN1CCC[C@H]1COc1nc(N2CC3CCC(C2)N3)c2cc(Cl)c(-c3cc(O)cc4ccccc34)c(F)c2n1 [Ex. 5, 4-(4-(3.8-diazabicyclo[3.2.1]octan-3-yl)-6-chloro-8-fluoro-2-(((S)-1-methylpyrrolidin-2-yl)methoxy)quinazolin-7-yl)naphthalen-2-ol] | 17300 | 6640 | 106 |  | 
2 | Cc1cc2[nH]nc(C)c2c(-c2c(F)cc3c(N4C[C@H]5CC[C@@](C)(C4)N5)nc(OC[C@]4(CN(C)C)CC4(F)F)nc3c2F)c1Cl [Ex 79, 1-((1R)-1-(((7-(5-chloro-3,6-dimethyl-1H-indazol-4-yl)-6,8-difluoro-4-((1S,5R)-1-methyl-3,8-diazabicyclo[3.2.1]octan-3-yl)quinazolin-2-yl)oxy)methyl)-2,2-difluorocyclopropyl)-N,N-dimethylmethanamine] |  |  | 72.5 | 4410 | 1930
3 | C[C@]12CC[C@H](CN(c3nc(OC[C@@]45CCCN4C[C@H](F)C5)nc4c(F)c(-c5cc(O)cc6cccc(Cl)c56)ncc34)C1)N2 [Ex. 99, 5-chloro-4-(8-fluoro-2-(((2R,7aS)-2-fluorotetrahydro-1H-pyrrolizin-7a(5H)-yl)methoxy)-4-((1S,5R)-1-methyl-3,8-diazabicyclo[3.2.1]octan-3-yl)pyrido[4,3-d]pyrimidin-7-yl)naphthalen-2-ol] | 57.5 |  | 2.46 |  | 243
4 | Cc1c(Cl)cc2[nH]nc(C)c2c1-c1c(F)cc2c(N3C[C@H]4CC[C@@](C)(C3)N4)nc(OCC3(CN4CC[C@@H](F)C4)CC3)nc2c1F [Ex 84, 7-(6-chloro-3,5-dimethyl-1H-indazol-4-yl)-6,8-difluoro-2-((1-(((R)-3-fluoropyrrolidin-1-yl)methyl)cyclopropyl)methoxy)-4-((1S,5R)-1-methyl-3,8-diazabicyclo[3.2.1]octan-3-yl)quinazoline] |  |  | 156 | 9320 | 6160
5 | CN(C)CC1(COc2nc(N3C[C@H]4CC[C@@](C)(C3)N4)c3cc(F)c(-c4cc(O)cc5ccccc45)c(F)c3n2)CC1 [Example 21, 4-(2-((1-((dimethyl-amino)methyl)cyclo-propyl)methoxy)-6,8-difluoro-4-((1S,5R)-1-methyl-3,8-diazabicy-clo[3.2.1]octan-3-yl)quinazolin-7-yl)naphthalen-2-ol] |  |  | 14.4 | 1980 | 636
6 | Cc1cc(O)cc(-c2c(F)cc3c(N4CC5CCC(C4)N5)nc(OCC4(CN5CCOCC5)CC4)nc3c2F)c1SC(F)(F)F [Example 49, 3-(4-(3,8-diazabicyclo[3.2.1]octan-3-yl)-6,8-difluoro-2-((1-(morpholinomethyl)cyclopropyl)methoxy)quinazolin-7-yl)-5-methyl-4-((trifluoromethyl)thio)phenol] |  |  | 184 | 24700 | 4990
7 | Oc1cc(-c2c(F)cc3c(N4CC5CC(O)C(C4)N5)nc(OCC4(CN5CCOCC5)CC4)nc3c2F)c2ccccc2c1 (single isomer, unassigned) [Example 17] |  | 7430 | 52.1 | 3260 | 
8 | CN1C[C@H](F)C[C@H]1COc1nc(N2C[C@H]3CC[C@@](C)(C2)N3)c2cc(F)c(-c3cc(O)cc4ccccc34)c(F)c2n1 [Ex 70, 4-(6,8-difluoro-2-(((2S,4R)-4-fluoro-1-methylpyrrolidin-2-yl)methoxy)-4-((1S,5R)-1-methyl-3,8-diazabicyclo[3.2.1]octan-3-yl)quinazolin-7-yl)naphthalen-2-ol] |  |  | 43.5 | 5390 | 2330
9 | Nc1ccc2c(F)ccc(-c3c(Cl)cc4c(N5CC6CCC(C5)N6)nc(OCC5(CN6CCOCC6)CC5)nc4c3F)c2n1 [Example 52, 8-(4-(3,8-diazabicyclo[3.2.1]octan-3-yl)-6-chloro-8-fluoro-2-((1-(morpholinomethyl)cyclopropyl)methoxy)quinazolin-7-yl)-5-fluoroquinolin-2-amine] |  |  | 132 | 3820 | 2560
